Measurements as given in publication PMC4552381, “Unraveling Comparative Anti-Amyloidogenic Behavior of Pyrazinamide and D-Cycloserine: A Mechanistic Biophysical Insight” (PLoS ONE, 2015).

Key:
[1] = target: T1, Hen egg white lysozyme (HEWL) (Gallus gallus, UniProt P00698); assay: intrinsic Trp fluorescence quenching, modified Stern-Volmer; type: binding; conditions: pH 7.4, 20 mM sodium phosphate, 25°C, 5 μM HEWL, excitation 295 nm, double-log
T1 construct: gene LYZ; native egg-white protein, commercial (Sigma), dialysed; mature chain, 129 residues, monomer, four disulfides
T1 sequence (P00698 19-147): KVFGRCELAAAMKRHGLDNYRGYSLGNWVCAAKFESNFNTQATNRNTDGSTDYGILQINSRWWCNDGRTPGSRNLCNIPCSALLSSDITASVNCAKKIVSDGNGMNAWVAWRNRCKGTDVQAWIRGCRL
Text: intrinsic Trp fluorescence quenching, modified Stern-Volmer on Hen egg white lysozyme (HEWL)

[2] = target: T1, Hen egg white lysozyme (HEWL); assay: heat-induced aggregation, turbidity at […] nm, single exponential fit; type: biochemical; conditions: pH 7.4, 65°C, 120 h, 10 μM HEWL, stirring; inhibition of aggregation

Row | Structure (SMILES) | binding constant ([1]; n = 1.1, unreliable (text b59 prints another value)) | Λ [2] [M⁻¹] | binding constant ([1]; n = 1.2)
1 | N[C@@H]1CONC1=O [D-cycloserine, D-4-amino-3-isoxazolidone] | (2.70±0.18)×10^3 M^-1 | 470 | 
2 | NC(=O)c1cnccn1 [pyrazinamide] |  | 1500 | (2.45±0.19)×10^4 M^-1
